The nature of data set [1]: Exposure of Form A to different relative humidities, water content by Karl Fischer. The data set is classed as physicochemical. The procedure:
The water content is determined by the Karl Fischer method.
5-[[4-[2-(methyl-2-pyridinylamino)ethoxy]phenyl]methyl]-2,4-thiazolidinedione phosphate hydrate in its polymorphic Form A was exposed to different relative humidities for about 24 hours.

A short description of data set [2]: Stress test at 80° C. in a closed vial, degradation determined by HPLC. Type of data set: physicochemical.
The conditions of data set [3]: comparator rosiglitazone maleate.

For the molecule `CN(CCOc1ccc(CC2SC(=O)NC2=O)cc1)c1ccccn1.O=P(O)(O)O` (stereo not shown) [Form A, 5-[[4-[2-(methyl-2-pyridinylamino)ethoxy]phenyl]methyl]-2,4-thiazolidinedione phosphate], the “Water content (Karl Fisher)” value in data set [1] (45% relative humidity, about 24 hours) is 3.42 % w/w; in data set [1] (63% relative humidity, about 24 hours), 3.37 % w/w; in data set [1] (86% relative humidity, about 24 hours), 3.58 % w/w; in data set [1] (Initial, before exposure to humidity) it was 2.8 % w/w. For the same molecule, in data set [2], the “Stability (general statement)” value is reported as “good stability”. Further, the “Degradation after stress test as determined by HPLC” value in data set [2] (80° C., about 160 hours, closed vial) is listed as “no degradation”.

As to `CN(CCOc1ccc(CC2SC(=O)NC2=O)cc1)c1ccccn1.O=P(O)(O)O` (stereo not shown) [Form E, 5-[[4-[2-(methyl-2-pyridinylamino)ethoxy]phenyl]methyl]-2,4-thiazolidinedione phosphate], the “Solubility in water compared to rosiglitazone maleate” value in data set [3] is given as “comparable or even more expressed”.

The record behind these values is patent US20080319024A1, “Rosiglitazone Phosphate and Polymorphic Forms” (priority 2004, published 2008).
